Laboratory results as given in ChEMBL document CHEMBL1145296, “Development of 6-substituted indolylquinolinones as potent Chek1 kinase inhibitors” (Bioorg Med Chem Lett, 2006).

Assays:
[1] = target: T1, Serine/threonine-protein kinase Chk1 (Homo sapiens, UniProt O14757); test: Inhibition of human CHEK1
T1 sequence (O14757 whole entry): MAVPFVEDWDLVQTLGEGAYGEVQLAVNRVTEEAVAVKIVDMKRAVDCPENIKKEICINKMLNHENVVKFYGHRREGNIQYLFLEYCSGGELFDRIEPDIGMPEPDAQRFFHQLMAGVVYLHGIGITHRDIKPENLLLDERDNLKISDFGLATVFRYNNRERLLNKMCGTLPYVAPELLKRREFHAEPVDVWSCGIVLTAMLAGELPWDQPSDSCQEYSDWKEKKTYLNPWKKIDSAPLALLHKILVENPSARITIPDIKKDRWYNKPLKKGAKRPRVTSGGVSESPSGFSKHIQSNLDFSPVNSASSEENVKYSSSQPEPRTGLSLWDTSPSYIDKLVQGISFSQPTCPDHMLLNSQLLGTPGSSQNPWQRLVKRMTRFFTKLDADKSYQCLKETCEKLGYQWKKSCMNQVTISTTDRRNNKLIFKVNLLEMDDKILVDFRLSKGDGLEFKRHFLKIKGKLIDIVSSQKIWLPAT

[2] = Clearance in dog at 0.25 mg/kg, iv; type: ADME, organism-based, Canis lupus familiaris; parameters: dose 0.25 mg/kg, route intravenous; settings: in vivo
[3] = Half life in dog at 0.25 mg/kg, iv; type: ADME, organism-based, Canis lupus familiaris; parameters: dose 0.25 mg/kg, route intravenous; settings: in vivo
[4] = Partition coefficient, log P of the compound; type: physicochemical; settings: octanol/water

| SMILES | IC50 [1] | clearance [2] | half-life [3] | logP [4] |
| --- | --- | --- | --- | --- |
| O=c1[nH]c2ccc(-n3nccn3)cc2cc1-c1cc2cc(CN3CCCCC3)ccc2[nH]1 | 14 nM |  |  |  |
| O=c1[nH]c2ccc(-n3ccnc3)cc2cc1-c1cc2cc(CN3CCCCC3)ccc2[nH]1 | 4.3 nM |  |  |  |
| O=c1[nH]c2ccc(-c3cc[nH]n3)cc2cc1-c1cc2cc(CN3CCCCC3)ccc2[nH]1 | 5.6 nM |  |  |  |
| N#Cc1ccc2cc(-c3cc4cc(CN5CCC(CN)CC5)ccc4[nH]3)c(=O)[nH]c2c1 | 190 nM |  |  |  |
| O=c1[nH]c2ccc(-c3cn[nH]c3)cc2cc1-c1cc2cc(CN3CCCCC3)ccc2[nH]1 |  | 30 mL/min/kg | 264 min | 2.81 |
| Cn1nnc(-c2ccc3[nH]c(=O)c(-c4cc5cc(CN6CCCCC6)ccc5[nH]4)cc3c2)n1 | 6.4 nM |  |  |  |
| CC(=O)N1CCN(Cc2ccc3[nH]c(-c4cc5cc(-c6cnn(C)c6)ccc5[nH]c4=O)cc3c2)CC1 | 3 nM | 6.5 mL/min/kg | 246 min |  |
| O=c1[nH]c2ccccc2cc1-c1cc2ccccc2[nH]1 | 1000 nM |  |  |  |
| N#Cc1ccc2[nH]c(=O)c(-c3cc4cc(CN5CCCCC5)ccc4[nH]3)cc2c1 | 4.6 nM |  |  |  |
| O=c1[nH]c2ccc(-c3cccc(O)c3)cc2cc1-c1cc2cc(CN3CCCCC3)ccc2[nH]1 | 29 nM |  |  |  |
| N#Cc1cccc2[nH]c(=O)c(-c3cc4cc(CN5CCC(CN)CC5)ccc4[nH]3)cc12 | 580 nM |  |  |  |
| COc1cc(-c2ccc3[nH]c(=O)c(-c4cc5cc(CN6CCCCC6)ccc5[nH]4)cc3c2)ccc1O | 20 nM |  |  |  |
| N#Cc1ccc2[nH]c(=O)c(-c3cc4cc(CN5CCC(CN)CC5)ccc4[nH]3)cc2c1 | 4 nM |  |  |  |

Further compounds by falling IC50 [1], results first:

| IC50 [1] | clearance [2] | half-life [3] | logP [4] | SMILES |
| --- | --- | --- | --- | --- |
| 2.9 nM |  |  |  | O=c1[nH]c2ccc(Br)cc2cc1-c1cc2cc(CN3CCCCC3)ccc2[nH]1 |
| 2.5 nM | 27 mL/min/kg | 90 min |  | CC(=O)N1CCN(Cc2ccc3[nH]c(-c4cc5cc(-c6cn[nH]c6)ccc5[nH]c4=O)cc3c2)CC1 |
| 2.1 nM | 23 mL/min/kg | 120 min |  | COCC(=O)N1CCN(Cc2ccc3[nH]c(-c4cc5cc(-c6cn[nH]c6)ccc5[nH]c4=O)cc3c2)CC1 |
| 1.1 nM |  |  |  | Cn1cc(-c2ccc3[nH]c(=O)c(-c4cc5cc(CN6CCCCC6)ccc5[nH]4)cc3c2)cn1 |
| 1 nM | 22 mL/min/kg | 150 min |  | O=c1[nH]c2ccc(-c3cn[nH]c3)cc2cc1-c1cc2cc(CN3CCC(F)CC3)ccc2[nH]1 |
| 0.83 nM | 34 mL/min/kg | 120 min |  | O=c1[nH]c2ccc(-c3cn[nH]c3)cc2cc1-c1cc2cc(CN3CCOCC3)ccc2[nH]1 |
| 0.74 nM |  |  |  | O=c1[nH]c2ccc(-n3ccnn3)cc2cc1-c1cc2cc(CN3CCCCC3)ccc2[nH]1 |
| 0.7 nM |  |  |  | NCC1CCN(Cc2ccc3[nH]c(-c4cc5cc(C(N)=O)ccc5[nH]c4=O)cc3c2)CC1 |
| 0.64 nM |  |  |  | O=c1[nH]c2ccc(-c3cnsc3)cc2cc1-c1cc2cc(CN3CCCCC3)ccc2[nH]1 |
| 0.34 nM |  |  |  | NC(=O)c1ccc2[nH]c(=O)c(-c3cc4cc(CN5CCCCC5)ccc4[nH]3)cc2c1 |
